Measurements from ChEMBL document CHEMBL1158654, “Cytotoxic principles from the sap of Kalmia latifolia” (J Nat Prod, 1979).
Converted amounts (≈) assume the structure as drawn.

Assays:
[1] = Cytotoxicity against human 9KB cells relative to control; format: functional; conditions: read-out: ED50 (the source's name)
[2] = Cytotoxicity against human 9KB cells assessed as cell survival at 100 ug/ml relative to control; format: functional; conditions: read-out: Activity
[3] = Cytotoxicity against human 9KB cells assessed as cell survival at 10 ug/ml relative to control; format: functional; conditions: read-out: Activity
[4] = Cytotoxicity against human 9KB cells in in-vivo based assay at 65 mg/kg relative to control; format: functional
[5] = tested on: P388; experiment: Cytotoxicity against mouse P388 cells relative to control; format: functional
[6] = Toxicity in ip dosed mouse; format: organism-based; conditions: in vivo

SMILES	EC50 [1]	viability at 100 µg/mL [2]	viability at 10 µg/mL [3]	T/C [4]	T/C [5]	LD50 [6]
O=C(CCc1ccc(O)c(O)c1)c1ccc(O)c(O)c1O	2.5 µg/mL (≈ 8.61 µM)	0%	0%	126%		
COc1cc(CCC(=O)c2ccccc2O)ccc1O		0%	76%			
COc1ccc(CCC(=O)c2c(O)cc(O)cc2O)cc1O		46%	100%			
O=C(CCc1ccc(O)c(O)c1)c1c(O)cc(O)cc1O		0%	95%			
O=C(CCc1ccc(O)cc1)c1cccc(O)c1		0%	71%			
O=C(CCc1ccccc1)c1c(O)cc(O)cc1O		0%	100%			
COc1cc(O)c(C(=O)CCc2ccc(O)cc2)c(O[C@@H]2O[C@H](CO)[C@@H](O)[C@H](O)[C@H]2O)c1 [ASEBOTIN]		100%	100%			
O=C(CCc1ccc(O)cc1)c1c(O)cccc1O		20%	100%			
COc1cc(O)c(Cc2ccccc2O)c(O)c1C(=O)CCc1ccccc1 [UVARETIN]					132%	
O=C(CCc1ccc(O)cc1)c1ccc(O)c(O)c1O		0%	100%			
COc1cc(O)c(C(=O)CCc2ccc(O)cc2)c(O)c1 [ASEBOGENIN]		0%	100%			
COc1cc(C(=O)CCc2ccc(O)cc2)ccc1O		0%	57%			
COc1cc(O)c(C(C)=O)c(O)c1	4.7 µg/mL (≈ 25.8 µM)	0%	0%			
COc1cc(O)c(C(C)=O)c(O[C@@H]2O[C@H](CO)[C@@H](O)[C@H](O)[C@H]2O)c1 [PLEOSIDE]		39%	100%			
CC(=O)c1c(O)cc(O)cc1O [2,4,6-TRIHYDROXYACETOPHENONE]		29%	100%			
O=C(CCc1ccc(O)cc1)c1ccc(O)cc1		0%	90%			
O=C(CCc1ccc(O)cc1)c1ccccc1O		0%	100%			
COc1ccc(C(=O)CCc2ccc(O)cc2)c(O)c1		0%	100%			
COc1cc(O)c(C(=O)CCc2ccccc2)c(OC)c1		0%	59%			
COc1cc(CCC(=O)c2ccccc2)ccc1O		0%	82%			
O=C(CCc1ccc(O)cc1)c1c(O)cc(O)cc1O[C@@H]1O[C@H](CO)[C@@H](O)[C@H](O)[C@H]1O [PHLORIZIN]	100 µg/mL (≈ 229 µM)	47%	100%			
CC(=O)c1ccc(O)c(O)c1O [GALLACETOPHENONE]		0%	81%			
O=C(CCc1ccc(O)cc1)c1c(O)cc(O)cc1O [PHLORETIN]	28 µg/mL (≈ 102 µM)	0%	76%			
O=C(CCc1ccc(O)cc1)c1ccccc1		0%	89%			
CC(=O)O[C@@H]1[C@H]2CC[C@H]3[C@@](C)(O)[C@@H]4C[C@H](O)C(C)(C)[C@@]4(O)[C@H](O)C[C@@]13C[C@@]2(C)O [GRAYANOTOXIN I]	60 µg/mL (≈ 145 µM)					1.3 mg/kg
O=C(CCc1ccc(O)c(O)c1)c1ccccc1O		0%	100%			
COc1cc(O)c(C(C)=O)c(OC)c1 [XANTHOXYLIN]		0%	100%			
O=C(CCc1ccc(O)cc1)c1ccc(O)cc1O [DAVIDIGENIN]		0%	50%			
